Source: patent US7045532B2 (Millennium Pharmaceuticals, Inc., priority 1999, dated 2006)

Tests used:
[1] = biological target: T1, ACE (Sigma, A2580) (Sus scrofa, UniProt F1RRW5); experiment: ACE enzymatic activity assay; assay type: biochemical, porcine; conditions: Ki class; compounds tested in 5% DMSO, 12 concentrations
T1 construct: ACE from porcine kidney; purchased Sigma A2580; host or cells: porcine kidney
T1 sequence (F1RRW5 34-1309): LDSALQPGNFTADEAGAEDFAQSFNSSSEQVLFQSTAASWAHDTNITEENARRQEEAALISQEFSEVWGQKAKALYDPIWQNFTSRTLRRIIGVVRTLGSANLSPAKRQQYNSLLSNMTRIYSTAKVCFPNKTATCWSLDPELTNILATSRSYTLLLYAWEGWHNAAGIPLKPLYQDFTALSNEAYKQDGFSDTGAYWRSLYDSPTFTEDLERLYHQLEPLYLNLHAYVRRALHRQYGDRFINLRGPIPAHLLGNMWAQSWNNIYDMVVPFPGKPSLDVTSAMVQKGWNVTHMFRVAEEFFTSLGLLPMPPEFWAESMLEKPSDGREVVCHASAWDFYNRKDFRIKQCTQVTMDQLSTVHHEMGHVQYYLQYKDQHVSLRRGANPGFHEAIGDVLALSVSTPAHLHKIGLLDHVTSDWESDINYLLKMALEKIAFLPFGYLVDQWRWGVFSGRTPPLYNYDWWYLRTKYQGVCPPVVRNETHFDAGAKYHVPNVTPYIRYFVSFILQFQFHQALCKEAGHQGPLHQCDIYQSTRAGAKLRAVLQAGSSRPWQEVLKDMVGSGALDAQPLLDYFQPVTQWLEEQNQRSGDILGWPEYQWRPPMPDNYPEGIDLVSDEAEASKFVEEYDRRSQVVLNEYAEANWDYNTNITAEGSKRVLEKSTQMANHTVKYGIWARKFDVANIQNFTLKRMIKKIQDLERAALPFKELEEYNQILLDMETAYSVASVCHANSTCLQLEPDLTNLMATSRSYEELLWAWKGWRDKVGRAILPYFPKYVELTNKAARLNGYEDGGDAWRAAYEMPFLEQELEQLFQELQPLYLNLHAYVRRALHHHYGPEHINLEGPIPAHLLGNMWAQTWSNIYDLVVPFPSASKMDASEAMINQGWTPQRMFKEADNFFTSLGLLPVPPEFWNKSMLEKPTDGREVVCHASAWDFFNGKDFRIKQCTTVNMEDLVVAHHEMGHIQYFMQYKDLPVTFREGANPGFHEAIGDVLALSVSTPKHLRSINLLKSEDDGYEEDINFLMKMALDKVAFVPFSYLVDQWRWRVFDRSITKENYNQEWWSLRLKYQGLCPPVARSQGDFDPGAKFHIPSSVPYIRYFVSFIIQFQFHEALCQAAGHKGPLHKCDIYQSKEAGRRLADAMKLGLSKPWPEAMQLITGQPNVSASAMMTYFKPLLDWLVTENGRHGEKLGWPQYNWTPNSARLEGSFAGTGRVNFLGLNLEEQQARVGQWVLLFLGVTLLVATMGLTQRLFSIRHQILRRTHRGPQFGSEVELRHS
Procedure: ACE (Sigma, A2580) enzymatic activity was assayed in microtiter plates using the following protocol. ACE assay buffer was made from 50 mM HEPES (Sigma), 300 mM sodium chloride (Sigma), and 0.01% Brij-35 (Pierce Chemical Co) at pH 7.5.
Reactions were mixed and incubated at 25° C. Enzymatic cleavage of the substrate is marked by a fluorescence change (excitation 330 nm, emission 415 nm).
The activity of the test compounds was investigated using the procedure outlined above. The compounds were tested in 5% DMSO. Enzyme activity was measured at 12 compound concentrations. […]. […]

[2] = biological target: T2, Carboxypeptidase A (Bos taurus, UniProt P00730); experiment: Carboxypeptidase A activity assay; assay type: biochemical; conditions: Ki class; compounds tested in 5% DMSO, 12 concentrations
T2 sequence (P00730 111-419): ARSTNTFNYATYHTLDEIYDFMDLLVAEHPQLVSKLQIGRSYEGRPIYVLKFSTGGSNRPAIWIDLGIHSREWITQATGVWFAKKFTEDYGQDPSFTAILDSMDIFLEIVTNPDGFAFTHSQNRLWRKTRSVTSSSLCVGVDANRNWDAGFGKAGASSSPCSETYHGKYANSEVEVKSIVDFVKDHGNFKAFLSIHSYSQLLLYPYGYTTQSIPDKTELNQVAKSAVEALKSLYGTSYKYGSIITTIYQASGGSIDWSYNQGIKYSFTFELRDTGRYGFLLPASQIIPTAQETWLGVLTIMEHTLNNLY
Procedure: Carboxypeptidase A activity was measured using a literature assay (Holmquist and Riordan, “Carboxypeptidase A,” Methods of Enzymatic Analysis (1984) p. 44–60). The assay was adapted to a 96 well format by adjusting to a 300 μL assay volume and using ultra-thin bottom plates (Costar/Corning) read at 328 nm. The assay was stopped using EDTA.
The activity of the test compounds was investigated using the procedure outlined above. The compounds were tested in 5% DMSO. Enzyme activity was measured at 12 compound concentrations. The Ki was calculated by using Ki=Kiapp/(1+[S]/Km).
To determine whether a test compound is capable of modulating carboxypeptidase A's ability to cleave a substrate the method described in Holmquist and Riordan, Carboxypeptidase A, p44–60, Peptidase and Their Inhibitors in Method of Enzymatic Analysis (1984), may be used.
The assay may be adapted to a 96 well format by adjusting to a 300 μl assay volume and using ultrathin bottom plates (Costar/Coming) read at 328 nm with a final assay volume of 300 μl. The assay may be stopped using EDTA.

[3] = biological target: T3, ACE-2 (Homo sapiens, UniProt Q9BYF1); experiment: ACE-2 Competitive Substrate Assay (ACS Assay); assay type: biochemical; conditions: Ki class; compounds tested in 5% DMSO, 12 concentrations; read-out: Human ACE-2 Activity
T3 construct: a stop codon inserted after the serine immediately preceding the transmembrane domain; made in house; host or cells: CHO K1 cells (transient transfection, purified from conditioned medium)
T3 sequence (Q9BYF1 18-740 limits assumed): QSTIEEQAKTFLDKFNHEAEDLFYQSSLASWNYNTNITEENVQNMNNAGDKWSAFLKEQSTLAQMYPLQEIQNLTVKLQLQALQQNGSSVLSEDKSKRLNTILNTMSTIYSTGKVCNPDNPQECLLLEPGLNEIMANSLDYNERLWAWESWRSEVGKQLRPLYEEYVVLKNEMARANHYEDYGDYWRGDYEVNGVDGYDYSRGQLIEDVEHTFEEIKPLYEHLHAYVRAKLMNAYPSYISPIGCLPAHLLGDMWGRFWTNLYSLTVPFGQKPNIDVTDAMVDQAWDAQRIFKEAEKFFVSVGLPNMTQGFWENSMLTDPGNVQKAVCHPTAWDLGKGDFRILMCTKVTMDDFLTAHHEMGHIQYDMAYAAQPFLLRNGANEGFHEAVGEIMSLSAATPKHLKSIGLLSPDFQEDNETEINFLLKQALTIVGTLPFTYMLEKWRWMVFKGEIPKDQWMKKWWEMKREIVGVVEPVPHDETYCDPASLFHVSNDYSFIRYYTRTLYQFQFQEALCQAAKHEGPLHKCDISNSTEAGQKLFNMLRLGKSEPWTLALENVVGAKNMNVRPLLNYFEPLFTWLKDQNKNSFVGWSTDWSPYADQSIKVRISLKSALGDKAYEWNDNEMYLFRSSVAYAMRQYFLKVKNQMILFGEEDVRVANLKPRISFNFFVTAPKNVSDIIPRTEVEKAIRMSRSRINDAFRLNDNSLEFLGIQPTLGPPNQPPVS

Compound	Ki [1]	Ki [2]	Ki [3]
2-[2-(3-Benzyl-3H-imidazol-4-yl)-1-carboxy-ethylamino]-butync acid [GG]	> 50 µM	> 50 µM	
2-[2-(3-Benzyl-3H-imidazol-4-yl)-1-carboxy-ethylamino]-butync acid [GH]	> 50 µM	> 50 µM	
4-Methyl-2-(3-phenethyl-ureido)-pentanoic acidmethyl ester [DG]	> 50 µM	> 50 µM	
CC(=O)N(C(CCc1ccccc1)C(=O)O)[C@@H](CC(C)C)C(=O)O (single isomer, unassigned) [AU, 2-[Acetyl-(1-carboxy-3-phenyl-propyl)-amino]-4-methyl-pentanoic acid]	> 50 µM	> 50 µM	
CC(C)CC(N[C@H](Cc1c[nH]cn1)C(=O)O)C(=O)O (single isomer, unassigned) [BJ, 2-[1-Carboxy-2-(1H-imidazol-4-yl)-ethylamino]4-methyl-pentanoic acid]	10 to 50 µM	> 50 µM	
CC(C)CC(N[C@@H](Cc1cn(Cc2ccccc2)cn1)C(=O)O)C(=O)O (single isomer, unassigned) [DM, 2-[2-(1-Benzyl-1H-imidazol-4-yl)-1-carboxy-ethylamino]-4-methyl-pentanoic acid]	> 50 µM	> 50 µM	
CCCCC(CC(=O)O)N[C@@H](Cc1c[nH]cn1)C(=O)O (single isomer, unassigned) [ET, 3-[1-Carboxy-2-(1H-imidazol-4-yl)-ethylamino]heptanoic acid]	> 50 µM	> 50 µM	
CC(C)CC(N[C@@H](Cc1c[nH]cn1)C(N)=O)C(=O)O (single isomer, unassigned) [EW, 2-[1-Carbamoyl-2-(1H-imidazol-4-yl)-ethylamino]4-methyl-pentanoic acid]	> 50 µM	> 50 µM	
CC(C)CC(N[C@@H](Cc1c[nH]cn1)C(=O)Nc1ccc([N+](=O)[O-])cc1)C(=O)O (single isomer, unassigned) [EY, 2-[2-(1H-Imidazol-4-yl)-1-(4-nitro-phenylcarbamoyl)ethylamino]-4-methyl-pentanoic acid]	> 50 µM	> 50 µM	
CC(C)CC(N[C@@H](Cc1cncn1Cc1ccccc1)C(=O)O)C(=O)O (single isomer, unassigned) [FA, 2-[2-(3-Benzyl-3H-imidazol-4-yl)-1-carboxy-ethylamino]-4-methyl-pentanoic acid]	> 50 µM	> 50 µM	
CC(C)CC(N[C@@H](CNc1ccccc1)C(=O)O)C(=O)O (single isomer, unassigned) [FJ, 2-(1-Carboxy-2-phenylamino-ethylamino)-4-methyl-pentanoic acid]	> 50 µM	> 50 µM	
COc1ccc(CCNC(=O)[C@H](Cc2cnc[nH]2)NC(CC(C)C)C(=O)O)cc1 (single isomer, unassigned) [FL, 2-{2-(3H-Imidazol-4-yl)-1-[2-(4-methoxy-phenyl)-ethylcarbamoyl]-ethylamino}4-methyl-pentanoic acid]	> 50 µM	> 50 µM	
CC(C)CC(N[C@@H](Cc1cncn1COCc1ccccc1)C(=O)NCCc1ccccc1)C(=O)O (single isomer, unassigned) [FN, 2-[2-(3-Benzyloxymethyl-3H-imidazol-4-yl)-1-phenethylcarbamoyl-ethylamino]-4-methyl-pentanoic acid]	> 50 µM	> 50 µM	
CC(C)CC(N[C@H](CO)Cc1c[nH]cn1)C(=O)O (single isomer, unassigned) [FP, 2-[1-Hydroxymethyl-2-(1H-imidazol-4-yl)-ethylamino)4-methyl-pentanoic acid]	> 50 µM	> 50 µM	
CC(C)CC(N[C@@H](Cc1cnc[nH]1)C(=O)NCCc1ccccc1)C(=O)O (single isomer, unassigned) [FX, 2-[2-(3H-Imidazol-4-yl)-1-phenethylcarbamoyl-ethylamino]-4-methyl-pentanoic acid]	> 50 µM	> 50 µM	
CC(C)CC(N[C@@H](Cc1cncn1Cc1cccc2ccccc12)C(=O)O)C(=O)O (single isomer, unassigned) [GL, 2-[1-Carboxy-2-(3-naphthalen-1-ylmethyl-3Himidazol-4-yl)-ethylamino]4-methyl-pentanoic acid]	10 to 50 µM	10 to 50 µM	
CC(C)CC(N[C@@H](Cc1cncn1Cc1ccc(Cl)cc1)C(=O)O)C(=O)O (single isomer, unassigned) [GN, 2-[1-Carboxy-2-[3-(4-chloro-benzyl)-3H-imidazol-4-yl]-ethylamino]4-methyl-pentanoic acid]	> 50 µM	> 50 µM	
CC(C)CC(N[C@@H](Cc1cncn1Cc1ccc(C(=O)O)cc1)C(=O)O)C(=O)O (single isomer, unassigned) [GP, 4-[5-[2-Carboxy-2-(1-carboxy-3-methyl-butylamino)-ethyl]-imidazol-1-ylmethyl]-benzoic acid]	> 50 µM	> 50 µM	
CC(C)C[C@H](NC(CCc1ccccc1)C(=O)O)C(=O)O (some centres unmarked) [C, 2-(1-Carboxy-3-phenyl-propylamino)-4-methyl-pentanoic acid]	> 50 µM		> 500 nM
CC(C)CC(N[C@H](Cc1cn(Cc2ccccc2)cn1)C(=O)O)C(=O)O (some centres unmarked) [CX, 2-[2-(1-Benzyl-1H-imidazol-4-yl)-1-carboxy-ethylamino]-4-methyl-pentanoic acid]	10 to 50 µM	> 50 µM	
CC(C)C[C@H](N[C@@H](CCc1ccccc1)C(=O)O)C(=O)O [D, 2-(1-Carboxy-3-phenyl-propylamino)-4-methyl-pentanoic acid]	> 50 µM		> 500 nM
O=C(O)C(CCc1ccccc1)N[C@@H](Cc1c[nH]cn1)C(=O)O (some centres unmarked) [ER, 2-[1-Carboxy-2-(1H-imidazol-4-yl)-ethylamino]4-phenyl-butync acid]	> 50 µM	> 50 µM	
CC(C)CC(N[C@@H](Cc1cn(Cc2ccc(Cl)cc2)cn1)C(=O)O)C(=O)O (some centres unmarked) [EU, 2-[1-Carboxy-2-[1-(4-chloro-benzyl)-1H-imidazol-4-yl]-ethylamino)4-methyl-pentanoic acid]	> 50 µM	10 to 50 µM	
CC(CS)C(=O)O (centres unmarked) [G, 3-Mercapto-2-methyl-propionic acid]	> 50 µM		> 500 nM
CC(C)CC(NC(Cc1cncn1Cc1cccc([N+](=O)[O-])c1)C(=O)O)C(=O)O (centres unmarked) [GA]	> 50 µM	10 to 50 µM	
